Key:
human PPARγ-full length = molecular target: T1, human PPARγ-full length (Homo sapiens, UniProt P37231); test: Surface plasmon resonance, full-length hPPARγ; assay type: binding; conditions: SPR, steady-state affinity, 25 °C; read-out: equilibrium dissociation constant (KD) for hPPARγ
T1 construct: human PPARγ-full length (Active Motif, USA); purchased Active Motif
T1 sequence (P37231 1-505): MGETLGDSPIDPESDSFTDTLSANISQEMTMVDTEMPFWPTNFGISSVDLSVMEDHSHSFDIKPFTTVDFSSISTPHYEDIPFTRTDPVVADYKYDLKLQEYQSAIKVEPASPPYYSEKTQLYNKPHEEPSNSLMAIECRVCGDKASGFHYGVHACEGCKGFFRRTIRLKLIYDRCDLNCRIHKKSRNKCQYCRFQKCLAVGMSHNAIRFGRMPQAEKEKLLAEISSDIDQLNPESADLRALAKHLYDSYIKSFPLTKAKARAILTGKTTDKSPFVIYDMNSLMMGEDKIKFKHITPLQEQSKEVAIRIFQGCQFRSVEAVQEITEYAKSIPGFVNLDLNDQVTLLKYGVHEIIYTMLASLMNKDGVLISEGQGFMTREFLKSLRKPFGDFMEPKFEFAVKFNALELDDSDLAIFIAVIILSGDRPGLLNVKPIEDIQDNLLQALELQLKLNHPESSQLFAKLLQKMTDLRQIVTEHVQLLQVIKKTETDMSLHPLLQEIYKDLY
Method: Prepared human PPARγ-LBD and human PPARγ-full length (Active Motif, USA) were immobilized onto a CM5 sensor chip using amine coupling. Briefly, the protein was diluted to 50 μg/mL in immobilization buffer and covalently attached to the CM5 chip via an Amine Coupling Kit (Cytiva, USA), following the manufacturer's instructions. A channel without immobilized protein was used as a blank control. The positive control, pioglitazone, and the test molecule, GlcCer, were both diluted in running buffer (PBS containing 5% (v/v) DMSO, 3 mM EDTA, and 0.05% (v/v) surfactant P20, pH 7.4). Gradient concentrations of GlcCer were injected over both channels at a flow rate of 30 μL/min, with an association time and dissociation time of 85 s each.

human PPARγ AF1 domain = molecular target: T2, human PPARγ AF1 domain (Homo sapiens, UniProt P37231); test: Surface plasmon resonance, PPARγ AF1 domain; assay type: binding; conditions: SPR
T2 sequence (P37231 31-135 limits assumed): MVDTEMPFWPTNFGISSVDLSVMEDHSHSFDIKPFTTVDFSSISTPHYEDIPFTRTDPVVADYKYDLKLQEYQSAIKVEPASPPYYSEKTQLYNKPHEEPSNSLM

PPARγ [1] = test system: T3, PPARγ; test: Lipid-protein pull down assay, dorsal striatum lysate; assay type: binding; conditions: GlcCer-beads, dorsal striatum of mice
T3 construct: from tissue; host or cells: mouse dorsal striatum
Method: Dorsal striatal tissues were cut into small pieces and then centrifuged at 13,000 g for 15 min at 4 °C. Supernatants were collected, and protein concentrations were determined using BCA assay. GlcCer-beads were equilibrated by washing them three times with ice-cold PBS. The clarified cell lysate was added to the equilibrated beads, then the mixture was incubated on a rotator at 4 °C for overnight, use approximately 500 µg of total protein per reaction. After incubation, the beads were washed three times with ice-cold PBS. Following the final wash, the beads were resuspended in SDS-PAGE sample buffer and heat at 95°C for 5 min to elute the bound proteins. The eluted sample was used to western blotting analysis.

PPARγ [2] = test system: T4, PPARγ; test: PPARγ transcription activity assay (PPRE binding), N2a cells; assay type: cell-based
T4 construct: endogenous in cells; host or cells: N2a cells (nuclear extract)
Method: Nuclear extracts were prepared from N2a cells using a nuclear extraction kit according to the manufacturer protocol. The binding reaction between PPARγ and PPRE was carried out at 4°C for 16 h using 3 μg of nuclear extracts. The binding activity between PPARγ and PPRE was indicated by the change of optical density (OD) at 405 nm, and an enzyme reaction was measured by HRP-conjugated antibody in complex of PPRE/ PPARγ/antibody.

[3] = LC-MS of GlcCer levels in dorsal striatum of CRS-induced mice; assay type: in vivo; conditions: intra-dorsal striatum infusion of pioglitazone, GlcCer or combination
Method: The procedure for the extraction of sphingolipids was established according to the LIPID MAPS protocol with modifications. Briefly, dorsal striatal tissues were added 0.5 mL of MeOH, 0.25 mL of CHCl3 and 7.5 μL of internal standards cocktail (2.5 μM). For sphingolipidomics, 5 μL of internal standards mixture (LM6002, Avanti polar lipids) was added. The mixture was then ultrasonicated for 45 s at room temperature and incubation at 48°C overnight. To avoid potentially interfering glycerolipids, 75 μL of KOH in MeOH (1M) was added, followed by incubation in a heat block at 200 rpm for 2 h at 37 °C. After neutralization, a four-step extraction process was performed to obtain SPL extract for analysis. The supernatant was transferred to a new Eppendorf tube and the resides were added l mL of MeOH and 2 mL of CHCl3, followed by centrifugation at 3800 rpm for 8 min. […] Sphingolipidomics were measured with ultra-high-performance liquid chromatography (UPLC) coupled with hybrid Quadrupole-Orbitrap high resolution mass spectrometry (Q-Exactive-HRMS). […] For […] quantitation, brain tissues were quantified by UPLC-MS/MS using a Q-Exactive-HRMS with UPLC. […] Quantification of […] with various fatty acid chain lengths were achieved using the calibration curve of each GlcCer species with closest number of chain length. […]

human PPARγ-LBD = test: Surface plasmon resonance, PPARγ LBD; conditions: Figure S7B, C
Method: Prepared human PPARγ-LBD and human PPARγ-full length (Active Motif, USA) were immobilized onto a CM5 sensor chip using amine coupling. Briefly, the protein was diluted to 50 μg/mL in immobilization buffer and covalently attached to the CM5 chip via an Amine Coupling Kit (Cytiva, USA), following the manufacturer's instructions. A channel without immobilized protein was used as a blank control. […] Gradient concentrations of GlcCer were injected over both channels at a flow rate of 30 μL/min, with an association time and dissociation time of 85 s each.

## Glucosylceramide [GlcCer]
Human PPARγ-full length
  Kd: 36 ± 2 nM
Human PPARγ AF1 domain
  Kd: 29 ± 3 nM
PPARγ [1]
  interaction between PPARγ and GlcCer (lipid-protein binding assay): direct interaction
PPARγ [2]; Figure 5H, GlcCer, pioglitazone or combination
  PPARγ transcriptional (DNA binding) activity in N2a cells: increased PPARγ transcriptional activity in a dose-dependent manner
PPARγ [2]; pioglitazone (100 nM), GlcCer (10 μM), or their combination, Figure S7F
  PPARγ transcriptional activity, nuclear extracts from N2a cells: significantly increased
[3]
  GlcCer levels in the dorsal striatum (LC-MS): increased
Human PPARγ-LBD
  binding affinity for the LBD (SPR): minimal binding affinity

— article PMC12775823, “Glucosylceramide regulates depression through activating peroxisome proliferator-activated receptor gamma in dorsal striatum” (Theranostics, 2026)
